From patent US12275731B2, “Azaindole inhibitors of wild-type and mutant forms of LRRK2” (DANA-FARBER CANCER INSTITUTE, INC., priority 2018, dated 2025)

Legend:
Assay in all cases: KinomeScan profiling
Assay type in all cases: binding
MET(Y1235D) = MET(Y1235D) (Homo sapiens, UniProt P08581, Y1235D); conditions: read-out: % control
Method in brief: (§1)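 Selectivity was assessed by binding competition at 1 μM against 468 kinases. Values below 35% of control define an interaction.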

MKNK1 = MKNK1 (Homo sapiens, UniProt Q9BUB5); conditions: MKNK1, 1 μM; read-out: % control
Method in brief: as §1

PFTAIRE2 = PFTAIRE2 (Homo sapiens, UniProt Q96Q40); conditions: PFTAIRE2, 1 μM; read-out: % control
Method in brief: as §1

RIPK4 = target: T1, RIPK4 (Homo sapiens, UniProt P57078); conditions: RIPK4, 1 μM; read-out: % control
T1 sequence (P57078 1-832): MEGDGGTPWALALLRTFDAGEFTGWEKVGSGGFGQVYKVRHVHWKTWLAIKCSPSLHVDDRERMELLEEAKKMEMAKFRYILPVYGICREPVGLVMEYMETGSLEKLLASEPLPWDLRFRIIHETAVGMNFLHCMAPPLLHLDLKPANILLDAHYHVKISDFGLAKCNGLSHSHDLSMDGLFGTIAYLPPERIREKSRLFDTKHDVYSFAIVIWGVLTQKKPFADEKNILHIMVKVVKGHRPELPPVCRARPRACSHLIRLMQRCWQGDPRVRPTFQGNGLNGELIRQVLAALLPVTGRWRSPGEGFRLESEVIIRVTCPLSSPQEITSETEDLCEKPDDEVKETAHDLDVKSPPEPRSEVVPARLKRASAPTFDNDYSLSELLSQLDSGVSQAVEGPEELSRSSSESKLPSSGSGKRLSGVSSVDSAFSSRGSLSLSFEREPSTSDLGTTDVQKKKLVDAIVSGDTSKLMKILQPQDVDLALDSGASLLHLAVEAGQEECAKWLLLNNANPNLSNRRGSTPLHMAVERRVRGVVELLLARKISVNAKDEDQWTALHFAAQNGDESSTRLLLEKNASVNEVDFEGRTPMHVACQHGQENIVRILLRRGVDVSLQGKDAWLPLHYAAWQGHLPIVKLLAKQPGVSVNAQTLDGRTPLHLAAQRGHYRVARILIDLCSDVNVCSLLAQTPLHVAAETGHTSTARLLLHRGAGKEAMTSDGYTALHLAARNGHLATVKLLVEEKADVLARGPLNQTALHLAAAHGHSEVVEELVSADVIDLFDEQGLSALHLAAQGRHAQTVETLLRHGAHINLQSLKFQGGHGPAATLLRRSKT
Method in brief: as §1

TGFBR1 = target: T2, TGFBR1 (Homo sapiens, UniProt P36897); conditions: TGFBR1, 1 μM; read-out: % control
T2 sequence (P36897 34-503): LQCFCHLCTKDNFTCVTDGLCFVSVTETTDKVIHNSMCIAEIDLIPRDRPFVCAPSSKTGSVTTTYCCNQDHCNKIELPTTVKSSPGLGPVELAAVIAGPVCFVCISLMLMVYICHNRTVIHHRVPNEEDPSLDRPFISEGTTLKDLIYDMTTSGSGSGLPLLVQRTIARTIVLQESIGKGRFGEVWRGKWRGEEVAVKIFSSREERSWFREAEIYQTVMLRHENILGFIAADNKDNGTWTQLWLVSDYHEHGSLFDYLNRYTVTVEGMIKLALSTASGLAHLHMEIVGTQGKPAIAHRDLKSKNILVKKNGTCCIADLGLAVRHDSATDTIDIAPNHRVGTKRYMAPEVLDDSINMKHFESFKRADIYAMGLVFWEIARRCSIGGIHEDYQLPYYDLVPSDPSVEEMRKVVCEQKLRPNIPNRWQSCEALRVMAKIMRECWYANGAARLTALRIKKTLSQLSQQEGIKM
Method in brief: as §1

TNK1 = target: T3, TNK1 (Homo sapiens, UniProt Q13470); conditions: TNK1, 1 μM; read-out: % control
T3 sequence (Q13470 1-666): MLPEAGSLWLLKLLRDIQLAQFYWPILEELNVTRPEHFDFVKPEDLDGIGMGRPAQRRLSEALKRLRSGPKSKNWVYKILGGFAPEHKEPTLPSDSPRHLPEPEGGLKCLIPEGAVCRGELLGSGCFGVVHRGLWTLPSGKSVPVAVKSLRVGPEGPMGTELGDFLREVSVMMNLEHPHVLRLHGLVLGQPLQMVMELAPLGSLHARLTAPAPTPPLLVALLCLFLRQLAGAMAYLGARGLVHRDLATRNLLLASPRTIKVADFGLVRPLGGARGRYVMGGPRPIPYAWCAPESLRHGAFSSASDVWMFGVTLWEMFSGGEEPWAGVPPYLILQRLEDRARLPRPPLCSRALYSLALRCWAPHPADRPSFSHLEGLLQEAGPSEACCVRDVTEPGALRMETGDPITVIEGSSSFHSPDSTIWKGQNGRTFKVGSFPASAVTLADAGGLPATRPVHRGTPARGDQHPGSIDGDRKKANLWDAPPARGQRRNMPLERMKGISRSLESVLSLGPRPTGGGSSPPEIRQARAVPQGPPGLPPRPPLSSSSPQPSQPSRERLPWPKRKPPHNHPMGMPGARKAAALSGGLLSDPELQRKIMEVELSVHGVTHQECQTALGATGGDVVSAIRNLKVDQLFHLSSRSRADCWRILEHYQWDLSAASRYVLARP
Method in brief: as §1

Chain of PFTAIRE2 (Q96Q40 whole entry): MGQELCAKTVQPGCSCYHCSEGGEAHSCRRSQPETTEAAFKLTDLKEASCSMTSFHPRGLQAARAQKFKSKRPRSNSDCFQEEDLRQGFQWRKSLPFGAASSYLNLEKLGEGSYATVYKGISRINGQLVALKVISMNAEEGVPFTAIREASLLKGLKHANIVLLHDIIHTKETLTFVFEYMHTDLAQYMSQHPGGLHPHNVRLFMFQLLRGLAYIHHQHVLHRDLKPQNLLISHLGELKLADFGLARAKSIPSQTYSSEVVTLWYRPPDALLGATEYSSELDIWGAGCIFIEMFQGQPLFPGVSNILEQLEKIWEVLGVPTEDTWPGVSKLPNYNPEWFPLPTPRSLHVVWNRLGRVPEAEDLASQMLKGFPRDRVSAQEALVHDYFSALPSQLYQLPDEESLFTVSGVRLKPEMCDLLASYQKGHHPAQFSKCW
Chain of MKNK1 (Q9BUB5 whole entry): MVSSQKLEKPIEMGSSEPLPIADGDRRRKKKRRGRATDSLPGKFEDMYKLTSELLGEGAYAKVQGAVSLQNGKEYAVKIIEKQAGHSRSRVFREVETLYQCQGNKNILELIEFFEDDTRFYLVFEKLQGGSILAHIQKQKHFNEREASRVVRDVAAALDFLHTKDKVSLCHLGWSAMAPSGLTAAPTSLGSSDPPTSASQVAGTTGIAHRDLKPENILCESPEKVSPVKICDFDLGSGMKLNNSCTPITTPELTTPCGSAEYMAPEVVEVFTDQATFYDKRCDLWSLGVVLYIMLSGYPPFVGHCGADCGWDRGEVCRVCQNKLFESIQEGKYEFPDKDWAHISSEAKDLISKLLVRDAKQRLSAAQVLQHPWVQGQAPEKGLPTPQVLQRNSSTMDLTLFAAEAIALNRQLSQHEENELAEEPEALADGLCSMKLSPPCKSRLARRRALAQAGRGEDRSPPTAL
Chain of MET(Y1235D) (P08581 25-1390 Y1235D): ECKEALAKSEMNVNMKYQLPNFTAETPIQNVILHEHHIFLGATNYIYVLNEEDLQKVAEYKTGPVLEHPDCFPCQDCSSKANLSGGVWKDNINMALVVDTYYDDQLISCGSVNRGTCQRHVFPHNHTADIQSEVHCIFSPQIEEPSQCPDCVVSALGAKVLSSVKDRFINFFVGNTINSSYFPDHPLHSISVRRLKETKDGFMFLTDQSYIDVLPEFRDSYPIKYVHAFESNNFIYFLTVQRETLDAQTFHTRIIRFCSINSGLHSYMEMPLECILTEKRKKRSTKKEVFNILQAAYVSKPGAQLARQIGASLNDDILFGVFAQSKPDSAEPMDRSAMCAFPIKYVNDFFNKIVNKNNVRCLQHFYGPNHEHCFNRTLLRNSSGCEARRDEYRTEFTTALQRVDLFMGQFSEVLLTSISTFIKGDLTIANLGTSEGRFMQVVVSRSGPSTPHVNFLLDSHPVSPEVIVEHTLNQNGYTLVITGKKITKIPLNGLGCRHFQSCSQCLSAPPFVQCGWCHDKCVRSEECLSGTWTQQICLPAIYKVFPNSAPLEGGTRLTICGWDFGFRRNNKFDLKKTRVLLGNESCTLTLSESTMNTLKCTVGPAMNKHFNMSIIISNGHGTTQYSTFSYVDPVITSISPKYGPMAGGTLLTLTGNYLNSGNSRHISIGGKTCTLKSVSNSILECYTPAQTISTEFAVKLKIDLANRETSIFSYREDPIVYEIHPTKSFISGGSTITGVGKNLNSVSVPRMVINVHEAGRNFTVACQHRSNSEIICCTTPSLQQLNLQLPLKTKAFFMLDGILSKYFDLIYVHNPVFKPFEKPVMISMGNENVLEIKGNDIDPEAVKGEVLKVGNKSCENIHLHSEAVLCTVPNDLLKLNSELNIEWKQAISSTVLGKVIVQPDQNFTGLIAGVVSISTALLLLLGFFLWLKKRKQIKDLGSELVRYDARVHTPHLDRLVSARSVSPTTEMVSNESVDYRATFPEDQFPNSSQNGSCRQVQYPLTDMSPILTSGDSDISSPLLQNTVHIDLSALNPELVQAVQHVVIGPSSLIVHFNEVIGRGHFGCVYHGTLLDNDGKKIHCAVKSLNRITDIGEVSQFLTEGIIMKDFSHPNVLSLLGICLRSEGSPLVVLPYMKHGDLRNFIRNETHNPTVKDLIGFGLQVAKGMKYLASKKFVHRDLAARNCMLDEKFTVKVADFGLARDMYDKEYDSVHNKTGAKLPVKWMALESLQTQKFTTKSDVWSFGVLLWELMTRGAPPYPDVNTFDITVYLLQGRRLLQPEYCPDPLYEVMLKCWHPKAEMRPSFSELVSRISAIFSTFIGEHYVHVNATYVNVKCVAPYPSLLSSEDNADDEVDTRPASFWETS

| Compound | remaining binding at 1 µM (MET(Y1235D)) [%] | remaining binding at 1 µM (MKNK1) [%] | remaining binding at 1 µM (PFTAIRE2) [%] | remaining binding at 1 µM (RIPK4) [%] | remaining binding at 1 µM (TGFBR1) [%] | remaining binding at 1 µM (TNK1) [%] |
| --- | --- | --- | --- | --- | --- | --- |
| CNc1c(-c2cnn([C@H]3CCN(C(C)=O)C[C@@H]3F)c2)cnc2[nH]cc(Cl)c12 [Compound 77, 1-((3S,4S)-4-(4-(3-chloro-4-(methylamino)-1H-pyrrolo[2,3-b]pyridin-5-yl)-1H-pyrazol-1-yl)-3-fluoropiperidin-1-yl)ethan-1-one] | 56 | 97 | 100 | 1.3 | 60 | 80 |
| O=C(c1ccc(-c2cnc3[nH]cc(Cl)c3c2NC2CCCC2)cc1)N1CCC(N2CCOCC2)CC1 [Compound 101, (4-(3-chloro-4-(cyclopentylamino)-1H-pyrrolo[2,3-b]pyridin-5-yl)phenyl)(4-morpholinopiperidin-1-yl)methanone] | 30 | 100 | 91 | 100 | 100 | 50 |
| CNc1c(-c2ccc(C(=O)N3CCC(N4CCOCC4)CC3)cc2)cnc2[nH]cc(Cl)c12 [Compound 96, (4-(3-chloro-4-(methylamino)-1H-pyrrolo[2,3-b]pyridin-5-yl)phenyl)(4-morpholinopiperidin-1-yl)methanone] | 83 | 100 | 100 | 7.8 | 56 | 83 |
